Our source for the IC50 values is US9637518B2, “IAP antagonists” (BRISTOL-MYERS SQUIBB COMPANY, priority 2014, dated 2017).

pIC50: −log10 of the molar value.

The target of assay [1] is T1, His-BIR2-3 (125-356, C202A/C213G, XIAP) (Homo sapiens, UniProt P98170, C202A/C213G).
T1 construct: His-BIR2-3 (125-356, C202A/C213G, XIAP)
As to the kind of experiment: XIAP-BIR2-3 dimeric SMAC Peptide Homogeneous Time Resolved Fluorescence (HTRF) Assay. It is filed as binding. The settings on record: 0.5 nM N-His-BIR2-3, 20 nM fluorescein labeled dimeric SMAC peptide. The procedure: B. XIAP-BIR2-3 dimeric SMAC Peptide Homogeneous Time Resolved Fluorescence (HTRF) Assay
Assays were performed in black, flat-bottom, 384-well plates. The final assay volume was 50 μL prepared from additions of His-BIR2-3 (125-356, C202A/C213G, XIAP), fluorescein labeled dimeric SMAC peptide, and test compounds in assay buffer consisting of 20 mM Sodium Phosphate, 1 mM EDTA, 50 mM NaCl, 50 μg/ml BSA, and 0.05% PLURONIC® F68. The reaction was incubated at room temperature for 60 minutes, following which 10 μl of mouse anti-6×His-Tb IgG (Medarex, Cis-bio) was added to the reaction (40 μl) for an additional 30 minute incubation. The HTRF signal, ratio of fluorescence intensities at emission wavelengths for fluorescein acceptor (520 nm) and terbium donor (615 nm), the 520/615 ratio, generated by the reaction was then measured on the Envision Plate Reader. Inhibition data were calculated from the 520/615 ratio generated by the no protein control reactions for 100% inhibition and vehicle-only reactions for 0% inhibition. The final concentration of reagents in the assay was 0.5 nM N-His-BIR2-3(125-356, C202A/C213G, XIAP), 20 nM fluorescein labeled dimeric SMAC peptide, 0.25 nM anti-His-Tb-Fab, and 0.1% DMSO. Dose response curves were generated to determine the concentration required for inhibiting 50% of the HTRF signal (IC50). Compounds were dissolved at 3 mM in dimethylsulfoxide (DMSO) and evaluated at eleven serially diluted concentrations. IC50 and Ki values were derived by non-linear regression analysis.

Another assay has as its target T2, His-BIR3 (241-356, XIAP) (Homo sapiens, UniProt P98170).
T2 construct: His-BIR3 (241-356, XIAP)
As to the kind of experiment: XIAP-BIR3/SMAC Homogeneous Time Resolved Fluorescence (HTRF) Assay. It is filed as binding. The conditions noted are these: 1 nM N-His-BIR3, 5 nM fluorescein labeled SMAC peptide. The method, then: A. XIAP-BIR3/SMAC Homogeneous Time Resolved Fluorescence (HTRF) Assay
Assays were performed in black, flat-bottom, 384-well plates. The final assay volume was 50 μL prepared from additions of His-BIR3 (241-356, XIAP), fluorescein labeled SMAC peptide, and test compounds in assay buffer consisting of 20 mM Sodium Phosphate, 1 mM EDTA, 50 mM NaCl, 50 μg/ml BSA, and 0.05% PLURONIC® F68. The reaction was incubated at room temperature for 60 minutes, following which 10 μl of mouse anti-6×His-terbium labeled Fab (Medarex, Cis-bio) was added to the reaction (40 μl) for an additional 30 minute incubation. The HTRF signal, ratio of fluorescence intensities at emission wavelengths for fluorescein acceptor (520 nm) and terbium donor (615 nm), the 520/615 ratio, generated by the reaction was then measured on the Envision Plate Reader Inhibition data were calculated from the 520/615 ratio generated by the no protein control reactions for 100% inhibition and vehicle-only reactions for 0% inhibition. The final concentration of reagents in the assay was 1 nM N-His-BIR3 (241-356, XIAP), 5 nM fluorescein labeled SMAC peptide, 0.25 nM anti-His-Tb-Fab, and 0.1% DMSO. Dose response curves were generated to determine the concentration required for inhibiting 50% of the HTRF signal (IC50). Compounds were dissolved at 3 mM in dimethylsulfoxide (DMSO) and evaluated at eleven serially diluted concentrations. IC50 and Ki values were derived by non-linear regression analysis.

T1 sequence (P98170 125-356 C202A/C213G): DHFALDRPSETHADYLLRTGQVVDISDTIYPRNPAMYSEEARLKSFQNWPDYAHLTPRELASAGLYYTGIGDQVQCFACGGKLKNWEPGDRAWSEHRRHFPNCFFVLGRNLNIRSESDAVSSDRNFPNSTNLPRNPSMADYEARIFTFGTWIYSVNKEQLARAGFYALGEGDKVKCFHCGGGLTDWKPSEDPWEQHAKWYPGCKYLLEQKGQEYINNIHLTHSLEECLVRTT
T2 sequence (P98170 241-356): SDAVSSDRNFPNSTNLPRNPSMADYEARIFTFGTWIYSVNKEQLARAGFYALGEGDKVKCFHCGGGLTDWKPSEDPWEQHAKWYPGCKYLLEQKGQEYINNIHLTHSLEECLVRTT

As for `CN[C@@H](C)C(=O)N[C@H](C(=O)N[C@@H](Cc1ccc(NC(=O)c2ccc(C(=O)N[C@H]3C[C@@H](C(=O)N[C@@H]4CCCc5ccccc54)N(C(=O)[C@@H](NC(=O)[C@H](C)NC)C(C)(C)C)C3)cc2)cc1)C(=O)N[C@@H]1CCCc2ccccc21)C1CCCCC1` [Example 8, N^1-(4-((S)-2-((S)-2-Cyclohexyl-2-((S)-2-(methylamino)propanamido)acetamido)-3-oxo-3-(((R)-1,2,3,4-tetrahydronaphthalen-1-yl)amino)propyl)phenyl)-N^4-((3S,5S)-1-((S)-3,3-dimethyl-2-((S)-2-(methylamino)propanamido)butanoyl)-5-(((R)-1,2,3,4-tetrahydronaphthalen-1-yl)carbamoyl)pyrrolidin-3-yl)terephthalamide], the negative-log IC50 (pIC50) in assay [1] was 8.02; at His-BIR3 (241-356, XIAP), 6.92.
For `CN[C@@H](C)C(=O)N[C@H](C(=O)N1C[C@@H](c2ccc(C[C@H](NC(=O)[C@@H](NC(=O)[C@H](C)NC)C(C)(C)SCC(=O)N(C)C[C@@H](O)CO)C(=O)N[C@@H]3CCCc4ccccc43)cc2)C[C@H]1C(=O)N[C@@H]1CCCc2ccccc21)C(C)(C)C` [Example 1, (2S,4R)-4-(4-((S)-2-((R)-3-((2-(((R)-2,3-Dihydroxypropyl)(methyl)amino)-2-oxoethyl)thio)-3-methyl-2-((S)-2-(methylamino)propanamido)butanamido)-3-oxo-3-(((R)-1,2,3,4-tetrahydronaphthalen-1-yl)amino)propyl)phenyl)-1-((S)-3,3-dimethyl-2-((S)-2-(methylamino)propanamido)butanoyl)-N—((R)-1,2,3,4-tetrahydronaphthalen-1-yl)pyrrolidine-2-carboxamide], the pIC50 in assay [1] was 7.91; on His-BIR3 (241-356, XIAP), 8.77.
On the same counts, the results for `CN[C@@H](C)C(=O)N[C@H](C(=O)N[C@@H](Cc1ccc([C@H]2C[C@@H](C(=O)N[C@@H](COC)c3ccccc3)N(C(=O)[C@@H](NC(=O)[C@H](C)NC)C(C)(C)C)C2)cc1)C(=O)N[C@@H]1CCCc2ccccc21)C(C)(C)C` [Example 7, (2S,4R)-4-(4-((S)-2-((S)-3,3-Dimethyl-2-((S)-2-(methylamino)propanamido)butanamido)-3-oxo-3-(((R)-1,2,3,4-tetrahydronaphthalen-1-yl)amino)propyl)phenyl)-1-((S)-3,3-dimethyl-2-((S)-2-(methylamino)propanamido)butanoyl)-N-((R)-2-methoxy-1-phenylethyl)pyrrolidine-2-carboxamide] are 6.86 and 7.32.
For `CN[C@@H](C)C(=O)N[C@H](C(=O)N1C[C@@H](c2ccc(C[C@H](NC(=O)[C@@H](NC(=O)[C@H](C)NC)C(C)(C)SCCO)C(=O)N[C@@H]3CCCc4ccccc43)cc2)C[C@H]1C(=O)N[C@@H]1CCCc2ccccc21)C(C)(C)C` [Example 2, (2S,4R)-1-((S)-3,3-Dimethyl-2-((S)-2-(methylamino)propanamido)butanoyl)-4-(4-((S)-2-((R)-3-((2-hydroxyethyl)thio)-3-methyl-2-((S)-2-(methylamino)propanamido)butanamido)-3-oxo-3-(((R)-1,2,3,4-tetrahydronaphthalen-1-yl)amino)propyl)phenyl)-N—((R)-1,2,3,4-tetrahydronaphthalen-1-yl)pyrrolidine-2-carboxamide], the pIC50 in assay [1] was 8.15; at His-BIR3 (241-356, XIAP) it was 8.77.
On the same counts, the results for `CN[C@@H](C)C(=O)N[C@H](C(=O)N1C[C@@H](NC(=O)c2ccc(C(=O)Nc3ccc(C[C@H](NC(=O)[C@@H](NC(=O)[C@H](C)NC)C(C)(C)SC)C(=O)N[C@@H]4CCCc5ccccc54)cc3)cc2)C[C@H]1C(=O)N[C@@H]1CCCc2ccccc21)C(C)(C)C` [Example 4, N^1-((3S,5S)-1-((S)-3,3-Dimethyl-2-((S)-2-(methylamino)propanamido)butanoyl)-5-(((R)-1,2,3,4-tetrahydronaphthalen-1-yl)carbamoyl)pyrrolidin-3-yl)-N^4-(4-((S)-2-((R)-3-methyl-2-((S)-2-(methylamino)propanamido)-3-(methylthio)butanamido)-3-oxo-3-(((R)-1,2,3,4-tetrahydronaphthalen-1-yl)amino)propyl)phenyl)terephthalamide] are 8.54 and 7.86.
The matching figures for `CN[C@@H](C)C(=O)N[C@H](C(=O)N[C@@H](Cc1ccc([C@H]2C[C@@H](C(=O)N[C@@H]3CCCc4ccccc43)N(C(=O)[C@@H](NC(=O)[C@H](C)NC)C(C)(C)C)C2)cc1)C(=O)N[C@@H]1CCCc2ccccc21)C(C)(C)C` [Example 3, (2S,4R)-4-(4-((S)-2-((S)-3,3-Dimethyl-2-((S)-2-(methylamino)propanamido)butanamido)-3-oxo-3-(((R)-1,2,3,4-tetrahydronaphthalen-1-yl)amino)propyl)phenyl)-1-((S)-3,3-dimethyl-2-((S)-2-(methylamino)propanamido)butanoyl)-N—((R)-1,2,3,4-tetrahydronaphthalen-1-yl)pyrrolidine-2-carboxamide]: 8.17 and 8.96.
On the same counts, the results for `CN[C@@H](C)C(=O)N[C@H](C(=O)N1C[C@@H](c2ccc(C[C@H](NC(=O)[C@@H](NC(=O)[C@H](C)NC)C(C)(C)SCC(=O)NC(CO)CO)C(=O)NC3CCCc4ccccc43)cc2)C[C@H]1C(=O)NC1CCCc2ccccc21)C(C)(C)C` (stereo partly shown) [Example 6] are 8.09 and 8.85.
In the case of `CN[C@@H](C)C(=O)N[C@H](C(=O)N[C@@H](Cc1ccc(C(=O)N[C@H]2C[C@@H](C(=O)N[C@@H]3CCCc4ccccc43)N(C(=O)[C@@H](NC(=O)[C@H](C)NC)C(C)(C)C)C2)cc1)C(=O)N[C@@H]1CCCc2ccccc21)C(C)(C)C` [Example 5, (2S,4S)-4-(4-((S)-2-((S)-3,3-Dimethyl-2-((S)-2-(methylamino)propanamido)butanamido)-3-oxo-3-(((R)-1,2,3,4-tetrahydronaphthalen-1-yl)amino)propyl)benzamido)-1-((S)-3,3-dimethyl-2-((S)-2-(methylamino)propanamido)butanoyl)-N—((R)-1,2,3,4-tetrahydronaphthalen-1-yl)pyrrolidine-2-carboxamide], the negative logarithm of the IC50 (pIC50) is 7.86 in assay [1] and 8.05 against His-BIR3 (241-356, XIAP).
